How the values were obtained:
[1] = test system: lipid infiltration experimentally induced by CCl4; test: Intoxication by CCl4, liver lipids; assay type: in vivo; settings: 12 hours fasting rats, oral route at different doses 2 hours before CCl4, sacrificed after 20 hours
Experimental: The study has been carried out on 12 hours fasting rats; MR 729 was administered by oral route at different doses 2 hours before carbon tetrachloride. The animals were sacrificed after 20 hours and the liver was removed for the determination of liver lipids.

bronchial secretion = test: In vivo mucolytic effect, sodium fluorescein method (Mawatari); settings: rat, 250 mg/kg intraperitoneal, 5 minutes before sodium fluorescein, determined after 30 minutes
Experimental: The effect of MR 729 on bronchial secretion has been studied in the rat with the method of sodium fluorescein described by Mawatari (Kagoshima Daigakeu Igakeu Zasshi, 27, 561, 1976).
The product under study has been administered by intraperitoneal route 5 minutes before the solution of sodium fluoroscein, whose amount in the bronchial secretion has been determined after 30 minutes.

[2] = Acute toxicity after single intraperitoneal administration; settings: mouse, in vivo, ip, mice, 95% confidence limits 307-478
Text: The toxicity of MR 729 after single administration has been studied in mice, by injecting the product at different doses by the intraperitoneal route.

[3] = target: T1, rat hepatic glutathione-peroxidase (GSH-P) (Rattus norvegicus, UniProt P04041); test: In vitro inhibition of glutathione-peroxidase (glutathione/NADPH/GSH-reductase/cumene hydroperoxide system); assay type: biochemical; settings: concentration 0.025 mM
T1 construct: rat hepatic glutathione-peroxidase (GSH-P); from tissue; host or cells: rat liver
T1 sequence (P04041 1-201): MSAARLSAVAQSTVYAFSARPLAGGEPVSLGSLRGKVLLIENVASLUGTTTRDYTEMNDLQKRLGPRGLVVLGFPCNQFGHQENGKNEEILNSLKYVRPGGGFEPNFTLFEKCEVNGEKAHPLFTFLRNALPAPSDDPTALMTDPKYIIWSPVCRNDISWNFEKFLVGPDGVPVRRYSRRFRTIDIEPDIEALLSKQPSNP
Experimental: On the ground of these considerations and considering the above described pharmacological results, it has been assessed the efficacy of MR 729 in inhibiting in vitro the rat hepatic glutathione-peroxidase (GSH-P).
It has been used the system glutathione/NADPH/GSH-reductase/cumene hydroperoxide. It was shown that MR 729 inhibits of about 63% the GSH-P, at a concentration of 0.025 mM. The administration of MR 729 allows therefore a saving of endogenous glutathione and a consequent decrease of free peroxides. Compound MR 729 can be administered by oral, parenteral, rectal, aerosolic route in various forms. The compositions below are described as an example: […]

[4] = target: T2, angiotensin converting enzyme (ACE) (Homo sapiens, UniProt P12821); test: In vitro inhibition of plasma ACE in normal human serum (method of Summary et al.); assay type: biochemical; set-up: ID50 (ACE inhibition): unit not given here; settings: for ACE activity: control 30; for % Enzymatic activity: control 100
T2 construct: The plasma ACE has been determined by the method of Summary et al; from tissue; host or cells: normal human serum
T2 sequence (P12821 30-1232 limits assumed): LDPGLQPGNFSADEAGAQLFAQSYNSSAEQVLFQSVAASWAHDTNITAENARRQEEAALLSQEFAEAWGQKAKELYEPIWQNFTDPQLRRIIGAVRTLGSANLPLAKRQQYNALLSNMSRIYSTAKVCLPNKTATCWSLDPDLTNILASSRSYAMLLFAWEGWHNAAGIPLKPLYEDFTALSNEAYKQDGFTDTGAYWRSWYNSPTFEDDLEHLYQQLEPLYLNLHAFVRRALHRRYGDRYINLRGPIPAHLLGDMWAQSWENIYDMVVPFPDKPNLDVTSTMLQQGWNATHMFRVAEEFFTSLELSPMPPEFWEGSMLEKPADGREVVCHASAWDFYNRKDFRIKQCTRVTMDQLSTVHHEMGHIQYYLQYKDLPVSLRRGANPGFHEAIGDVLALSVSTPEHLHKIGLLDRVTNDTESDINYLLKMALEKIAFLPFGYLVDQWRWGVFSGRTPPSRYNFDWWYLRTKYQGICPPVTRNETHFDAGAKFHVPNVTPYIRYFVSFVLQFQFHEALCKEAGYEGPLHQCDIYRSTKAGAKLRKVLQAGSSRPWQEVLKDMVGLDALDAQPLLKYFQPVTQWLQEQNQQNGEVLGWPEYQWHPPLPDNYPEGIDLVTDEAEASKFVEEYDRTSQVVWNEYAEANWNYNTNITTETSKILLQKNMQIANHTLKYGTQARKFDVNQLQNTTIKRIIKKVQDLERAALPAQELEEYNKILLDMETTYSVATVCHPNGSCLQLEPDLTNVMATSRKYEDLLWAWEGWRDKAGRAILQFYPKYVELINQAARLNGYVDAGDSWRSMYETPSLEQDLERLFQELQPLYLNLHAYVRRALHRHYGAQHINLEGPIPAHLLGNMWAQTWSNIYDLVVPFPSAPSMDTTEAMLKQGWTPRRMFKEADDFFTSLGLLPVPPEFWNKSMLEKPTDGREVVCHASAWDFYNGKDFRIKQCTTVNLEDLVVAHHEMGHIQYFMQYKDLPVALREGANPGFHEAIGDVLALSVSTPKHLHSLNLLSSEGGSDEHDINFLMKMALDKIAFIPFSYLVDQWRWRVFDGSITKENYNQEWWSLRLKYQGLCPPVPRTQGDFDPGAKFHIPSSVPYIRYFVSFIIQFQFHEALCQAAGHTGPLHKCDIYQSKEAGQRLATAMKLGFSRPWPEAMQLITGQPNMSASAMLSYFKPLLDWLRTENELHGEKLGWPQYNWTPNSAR
Experimental: The plasma ACE has been determined by the method of Summary et al. (Clin. Sci. 50, 321, 1976) using histidyl-glycyl-histidine as a substrate.
Tests have been carried out with 20 ml of normal human serum.
A 0.1 M aqueous solution of MR 729 has been used.

[5] = test system: pig's lyophilized gastric mucine; test: In vitro mucolytic effect (method of Scheffner)
Text: It has been followed the method described by Scheffner (Ann. N.Y. Acad. Sci. 106, 298, 1963) using as a substrate pig's lyophilized gastric mucine.

liver regeneration = test: Liver regeneration in partially hepathectomized rats; assay type: in vivo; settings: treated just after operation, assessed after 4 days
Text: This study aimed to evidence whether MR 729 could affect the liver regeneration in partially hepathectomized rats.
The animals have been treated with the product under study just after their operation; the regeneration degree has been assessed after 4 days.

[6] = test system: hepatic damage caused by α-naphtyl-isothiocyanate; test: Intoxication by α-naphtyl-isothiocyanate; assay type: in vivo; settings: rat, contemporary oral treatment, 8 days α-naphtyl-isothiocyanate
Text: The hepatic damage caused by 8 days prolonged administration of α-naphtyl-isothiocyanate causes in the rate impairments in respect of cellular proliferation and hypertrophy of periportal spaces.

[7] = test system: ethionine-induced hepatic lipidic infiltration; test: Intoxication by ethionine; assay type: in vivo; settings: rat, daily oral administration during the 8 days preceding ethionine
Text: Also ethionine administration causes in the rat hepatic damages with respect to hepatocytes, occurring as a massive lipidic infiltration.

[8] = test system: time of hexobarbital induced sleep; test: Hexobarbital induced sleep in rats intoxicated by carbon tetrachloride; assay type: in vivo
Experimental: Since the length of barbiturates induced sleep can be considered directly related to the metabolism rate of these drugs by the liver, it seemed appropiate to assess the influence of MR 729 on the time of hexobarbital induced sleep in rats intoxicated by carbon tetrachloride.
MR 729 has been administered by oral route for 4 consecutive days, at different doses; the animals were then treated with CCl4 and, after 48 hours, with hexobarbital.

[9] = MR 729 20 μl (0.1 M aqueous solution)
[10] = MR 729 50 μl (0.1 M aqueous solution)
[11] = MR 729 100 μl (0.1 M aqueous solution)

CC(S)C(=O)NCC(=O)N1CSCC1C(=O)O (stereo not shown) [MR 729, 3-[N-(2-mercapto-propionyl-amino-acetyl)]-tetrahydro-thiazolyl-4-carboxylic acid]
Inhibition of liver lipid infiltration induced by CCl4 [1]: able to inhibit, in a dose-dependent way, the lipid infiltration
Bronchosecretolytic activity relative to carboxymethylcysteine 500 mg/kg i.p. (bronchial secretion): fivefold higher activity
LD50 [2]: 395 mg/kg
inhibition at 25 µM [3]: ~63%
ACE activity [4, 9]: 9 nmol/10 min/20 μl
% Enzymatic activity [4, 9]: 30%
ACE activity [4, 10]: 7 nmol/10 min/20 μl
% Enzymatic activity [4, 10]: 23%
ACE activity [4, 11]: 3 nmol/10 min/20 μl
% Enzymatic activity [4, 11]: 10%
ID50 (ACE inhibition) ([4]; in vitro, normal human serum, 0.1 M aqueous solution of MR 729): 60
Decrease of viscosity ([5]; pig gastric mucine, according to the considered dose): 17-35%
Mucolytic activity higher than equiponderant doses of N-acetyl-S-cysteine ([5]; same experimental conditions, according to the doses): 35-50%
Effect on liver regeneration (liver regeneration): acts in a positive way on the regeneration process, without however a clear dose-effect relationship
Histological examination of biliary ducts and parenchyma [6]: structure of biliary ducts in the treated animals was practically unchanged
Inhibition of hepatic pathology caused by α-naphtyl-isothiocyanate [6]: inhibits the development of such pathology
Antagonism of ethionine-induced hepatic lipidic infiltration [7]: effective in antagonizing, with a dose-related intensity, the establishment of this pathology
Sleeping times ([8]; oral 4 days, at highest doses): practically within normal limits
Inhibition of CCl4-induced prolongation of hexobarbital sleeping time ([8]; oral route for 4 consecutive days at different doses, then CCl4, hexobarbital after 48 hours): inhibits the remarkable prolongation of sleeping time

From patent publication US4447419A, “Thiazole derivative, and pharmaceutical compositions containing it” (Ausonia Farmaceutici s.r.l., priority 1981, dated 1984)
